Results from US20160176919A1, “CELL SPECIFIC LABELING OF NEWLY SYNTHESIZED PROTEINS” (OREGON HEALTH & SCIENCE UNIVERSITY, priority 2014, published 2016).

What was measured:
Hela cells = experiment: Identifying the nascent proteome in Hela cells using OP-puro (click chemistry with biotin azide, NeutrAvidin affinity purification, Western blot/silver stain, MS/MS); type: cell-based, human
Procedure: FIG. 3 is a set of two images of gels that show selective enrichment of newly synthesized proteins in Hela cells treated with OP-puro relative to those treated with puromycin. Hela cells were treated with either 50 μM OP-puro or puro (as indicated) for one hour. Cells were then harvested in PBS+1% SDS (sodium dodecyl sulfate) and lysed. Lysates were diluted in 0.1% SDS and incubated with biotin azide using a click reaction for one hour. Biotinylated proteins were affinity purified using NeutrAvidin agarose beads. Eluted proteins were resolved using a 4-12% gradient SDS-PAGE gel and detected by either Western blot with streptavidin-HRP (left gel) or by silver stain (right gel). The lanes reflect input (I), supernatant (S), or pull-down (P) as indicated.
OP-puro can identify newly synthesized proteins in a defined timeframe in mammalian cells grown in culture. Newly synthesized proteins were identified in Hela cells using OP-puro, followed by click chemistry, affinity purification, and MS/MS analysis. OP-puro was synthesized according to Liu et al, 2012 supra.
To prepare samples for MS/MS analysis, the captured biotinylated proteins from the OP-puro and puro (used as a background control) treated cells were alkylated and digested on the agarose beads using trypsin. The peptides were analyzed using a capillary HPLC system coupled online with an LTQ orbitrap mass spectrometer. […] These peptides identified 530 different human proteins, which represents ˜5% of the total Hela proteome (Nagaraj et al 2011 supra).

[1] = Stability of PhAc-OP-puro in mouse plasma by LCMS; type: in vitro ADME; settings: in vitro, for up to 40 min
Procedure: FIG. 6 is a plot of the results of incubating PhAc-OP-puro in mouse plasma for the indicated period of time. Stability of PhAc-OP-puro was monitored by liquid chromatography mass spectrometry.
As shown above, PhAc-OP-puro is stable in cell culture and is not converted to OP-puro in wild type cells. To use PhAc-OP-puro in an animal system such as mice, the in vitro stability of PhAc-OP-puro in plasma should be determined. Plasma typically contains high esterase activity that could result in cleavage of the carbamate linkage in PhAc-OP-puro. Cleavage of PhAc-OP-puro at the carbamate linkage would generate OP-puro, and therefore would not allow use of the disclosed method in intact mice. While there are several examples of drugs containing carbamates (Chaturvedi D, Tetrahedron 68, 15 (2012); incorporated by reference herein), it is unpredictable whether or not a particular carbamate is resistant to esterases in plasma.
The potential esterase-dependent metabolism of PhAc-OP-puro in mouse plasma was assessed by liquid chromatography mass spectrometry (LCMS). PhAc-OP-puro was determined to be stable in mouse plasma for up to 40 min (FIG. 6).

[2] = tested on: HEK 293T cells transfected with PGA-IRES-GFP; experiment: Cell-specific labeling of newly synthesized proteins in single HEK 293T cells (click chemistry with Alexa Fluor-568 azide, fluorescence microscopy); type: cell-based, human; settings: 5 μM, 30 min
Procedure: FIG. 5A is a set of 12 images of HEK 293T cells transfected with PGA-IRES-GFP or controls as indicated using calcium phosphate transfection. In two of the conditions, PGA-IRES-GFP transfected cells were mixed with nontransfected cells such that the total population of transfected cells was 5%. At a timepoint 24 hours post transfection, cells were treated with either a DMSO control or 5 μM PhAc-OP-puro for 30 minutes as indicated. Cells were then fixed with methanol and nascent protein synthesis detected by click chemistry with Alexa Fluor-568 azide. After click chemistry, cells were labeled with an antibody specific for GFP. Total cells were detected by DAPI.
In cells treated with PhAc-OP-puro (5 μM, 30 min), labeling of newly synthesized proteins (OP-puro-tagged peptides) is detected in PGA-expressing cells (identified by GFP) (FIG. 5A). The amount of labeling appeared to correlate with the expression levels of PGA as determined by comparing the fluorescence intensity of the OP-puro tagged peptides to the fluorescence intensity of GFP.

[3] = tested on: HEK293T cells transfected with PGA-IRES-GFP or control plasmid; experiment: Deblocking of PhAc-OP-puro by PGA in HEK 293T cells transfected with PGA-IRES-GFP or control plasmid (biotin azide click, Streptavidin-HRP dot blot/Western blot); type: cell-based, human
Procedure: FIG. 4A is a dot blot and a bar graph showing HEK293T cells transfected with either a PGA IRES GFP or a control plasmid (as indicated) using calcium phosphate transfection. Twenty-four hours after transfection, cells were treated with 5 or 50 μM of DMSO (negative control), OP-puro, or PhAc-OP-puro as indicated for 30 minutes. Cells were harvested in PBS+1% SDS. Lysates were diluted 10× and incubated with biotin azide under click reaction conditions for one hour. Lysates were spotted onto nitrocellulose and biotinylated proteins detected with Streptavidin-HRP (top panel). Dot intensity was quantified using Image) and graphed (bottom panel).
FIG. 4B is a set of two images of gels showing proteins from three of the samples described in FIG. 4A resolved by 4-12% gradient SDS-PAGE and detected by Western blot with Streptavidin-HRP (left panel) or Ponceau S staining (right panel) Bands marked with an asterisk are endogenous cellular biotinylated proteins.
In E. coli, PGA is expressed as a precursor protein containing a signal sequence that targets it to the bacterial periplasm, where it is processed and activated (Kasche et al, Biochem Biophys Acta 1433, 76 (1999); incorporated by reference herein). Previous studies, however, have shown that by removing the signal sequence, PGA can be expressed in the cytoplasm of the methylotrophic yeast, Pichia pastoris (Maresova H et al, BMC Biotechnol 10, 7 (2010); incorporated by reference herein). Importantly, this cytoplasmic variant of PGA was as active as wild type (WT) PGA expressed in bacteria (Maresova H et al, 2010 supra). However, to date, no one had shown whether or not PGA could be expressed in mammalian cells or any cells derived from a multicellular organism. A construct (PGA-IRES-GFP) was the designed, the construct comprising a variant of PGA lacking the signal sequence described above, and an IRES-GFP for co-cistronic expression of GFP to identify transfected cells.
The incorporation of OP-puro into newly synthesized proteins was detected using click chemistry with biotin azide. […] (FIG. 4A).

[4] = OP-puro treated Hela cells, puro as background control

With `C#CCOc1ccc(C[C@H](N)C(=O)N[C@H]2[C@@H](O)[C@H](n3cnc4c(N(C)C)ncnc43)O[C@@H]2CO)cc1` [OP-puro, O-propargyl puromycin] the “biotinylated proteins in NeutrAvidin eluates (Western blot with streptavidin-HRP)” value (Hela cells; Hela cells, 50 μM, one hour) was “presence of biotinylated proteins”, the “fraction of the total Hela proteome represented by identified proteins” value (Hela cells; OP-puro treated Hela cells) was about 5% and the “different human proteins identified” value (Hela cells; [4]) was 530. For the same compound, the “peptides with unique amino acid sequences identified by MS/MS” value (Hela cells; [4]) was 1,600.

For `C#CCOc1ccc(C[C@H](NC(=O)OCc2ccc(NC(=O)Cc3ccccc3)cc2)C(=O)NC2C(CO)OC(n3cnc4c(N(C)C)ncnc43)C2O)cc1` (stereo partly shown) [PhAc-OP-puro], the “stability in mouse plasma” value [1] was “stable”, the “labeling of newly synthesized proteins (OP-puro-tagged peptides) in PGA-expressing cells” value ([2]; PGA-expressing cells identified by GFP) was “detected” and the “labeling of newly synthesized proteins in cells not expressing PGA” value ([2]; cells not expressing PGA) was “No labeling was detected”. The “incorporation into newly synthesized proteins (biotin signal)” value ([3]; HEK 293T cells transfected with PGA-IRES-GFP, 5 μM, 30 min) was “prominent biotin signal”, the “time for complete conversion to OP-puro” value ([3]; PGA-IRES-GFP transfected HEK 293T cells, 5 μM) was at most 30 min and the “induction of the unfolded protein response” value ([3]; PGA-IRES-GFP transfected HEK 293T cells, 5 μM, 30 min) was “no observed induction”. The “signal intensity relative to OP-puro control” value ([3]; PGA-IRES-GFP transfected HEK 293T cells, 5 μM, 30 min, versus control transfected cells with OP-puro 5 μM) was “the same as that of control transfected cells treated with OP-puro” and the “activity (labeling of proteins) in the absence of PGA” value ([3]; control transfected HEK 293T cells, up to 50 μM) was “completely inert”.

In the case of `COc1ccc(C[C@H](N)C(=O)N[C@H]2[C@@H](O)[C@H](n3cnc4c(N(C)C)ncnc43)O[C@@H]2CO)cc1` [puro, puromycin], the “silver stain of NeutrAvidin eluates” value (Hela cells; Hela cells, 50 μM, one hour) is reported as “no detectable staining”.
